The structures appear in SMILES notation.

The values that follow come from publication PMC9101642 (Molecules, 2022).

One assay has as its system MCF-7 cells. As to the kind of experiment: Cell cycle distribution by flow cytometry. Type of assay: cell-based, human. To be noted: 0.1 nM, 24 h. A general note: A flow cytometer gives signals particle by particle.
As to `C[C@]12CC[C@@H]3c4ccc(O)cc4CC[C@H]3[C@@H]1CC[C@@H]2O` [Compound E2, 17β-estradiol, reference compound], the “Cell Cycle (%) G0/G1” value is reported as 17.34 ± 0.35 *^,‡,§ %, the “Cell Cycle (%) G2/M” value is 54.51 ± 0.57 *^,‡,§ % and the “Cell Cycle (%) S” value is 28.15 ± 0.52 *^,‡,§ %.

Staying with this assay, now noted: 1 nM, 24 h.
Turning to `C[C@]12CC[C@@H]3c4ccc(O)cc4CC[C@H]3[C@@H]1CC[C@@H]2O` [Compound E2, 17β-estradiol, reference compound], the “Cell Cycle (%) G0/G1” value is 25.34 ± 0.36 *^,‡,§ %, the “Cell Cycle (%) G2/M” value is on record as 45.14 ± 0.33 *^,‡,§ % and the “Cell Cycle (%) S” value is reported as 29.52 ± 0.46 *^,‡,§ %.

For another assay, the target named is estrogen receptor α.
Assay: not given
To be noted: Table S1, PDB ligands; cited from earlier work.
Usually pKi stands for the negative decadic logarithm of the Ki, by convention in mol/L. For the compound `CC1CCN(CCOc2ccc(C(=O)c3c(-c4ccc(O)cc4)sc4cc(O)ccc34)cc2)CC1` [Compound 2R6W], the pKi is on record as 9.4.

For `O=C(c1ccc(OCCN2CCCC2)cc1)c1c(-c2ccc(O)cc2)sc2cc(O)ccc12` [Compound 2R6Y], the pKi is 9.5.

Staying with this assay, now noted: cited from earlier work.
By pIC50 is commonly meant −log10 of the IC50, conventionally taken in molar units. `Oc1ccc([C@@H]2Sc3cc(O)ccc3O[C@@H]2c2ccc(OCCN3CCCCC3)cc2)cc1` [Compound 1SJ0]: the pIC50 is listed as 9.09.

Consider `CC1(O)CCC2c3ccc4cc(O)ccc4c3CCC21C` (stereo not drawn) [Compound 2B1Z], for which the pIC50 is 7.10.

The same assay, now with this note: crystal test set TSCRY (WT and MUT complexes); cited from earlier work.
Take `CC(C)(c1ccc(O)cc1)c1ccc(O)cc1` [Compound 3UU7]: the pKi is reported as 8.79.

Consider `Oc1ccc(C(c2ccc(O)cc2)(C(F)(F)F)C(F)(F)F)cc1` [Compound 3UUA], for which the pKi is 8.79.

On to `Oc1ccc(C(=C(Cl)Cl)c2ccc(O)cc2)cc1` [Compound 3UUC], for which the pKi is given as 5.70.

Turning to `OCc1cc(Br)c(-c2ccc(O)cc2)c(-c2ccoc2)c1` [Compound 4DMA], the pKi is listed as 5.60.

Regarding `C[C@H]1CCC[C@H](O)CCCCCc2cc(O)cc(O)c2C(=O)O1` [Compound 4MG8], the negative logarithm of the Ki (pKi) is 10.00.

For the compound `O=C(c1ccc(O)cc1O)c1ccc(O)cc1O` [Compound 4MGC], the pKi is reported as 7.00.

With `C[C@H]1CCC[C@H](O)CCC/C=C/c2cc(O)cc(O)c2C(=O)O1` [Compound 4TUZ], the pKi is recorded as 10.00.

The assay is the same for the next values; noted with them: ligands of mutated (MUT) ERα complexes, training set; cited from earlier work.
Turning to `Oc1ccc(-c2n[nH]c3cc(O)ccc23)c(O)c1` [Compound 2QA6], the pIC50 was 7.30.

As to `CC1CCN(CCOc2ccc(C(=O)c3c(-c4ccc(O)cc4)sc4cc(O)ccc34)cc2)CC1` [Compound 2R6W], the negative logarithm of the IC50 (pIC50) is 8.60.

As to `O=C(c1ccc(OCCN2CCCC2)cc1)c1c(-c2ccc(O)cc2)sc2cc(O)ccc12` [Compound 2R6Y], the pIC50 is 8.90.

Regarding `Cc1cc(F)ccc1-c1c(Cc2ccc(/C=C/C(=O)O)cc2)c2ccc(O)cc2oc1=O` [Compound 5AK2], the pIC50 was 8.40.

Still in this assay, the particulars now being: ligands of wild-type (WT) ERα complexes, training set; cited from earlier work.
As to `CC/C(=C(\c1ccccc1)c1ccc(/C=C/C(=O)O)cc1)c1ccccc1` [Compound 1R5K], the pIC50 is 7.40.

As for `Oc1ccc2c(c1)CCN(c1ccccc1)[C@H]2c1ccc(N2CCC3CCCCN3C2)cc1` (stereo partly drawn) [Compound 1XQC], the pIC50 is recorded as 7.20.

Staying with this assay, now noted: modeled test set TSMOD1; cited from earlier work.
With `O=c1cc(-c2ccccc2)oc2cc(O)c(O)c(O)c12` [Baicalein], the negative logarithm of the IC50 (pIC50) is 4.71.

Consider `Cc1ccccc1N=Cc1cn(-c2ccccc2)nc1-c1ccccc1` [Compound I11-4a1a], for which the pIC50 is on record as 4.33.

With `Cc1cccc(C)c1N=Cc1cn(-c2ccccc2)nc1-c1ccccc1` [Compound I11-4a2], the pIC50 is 4.13.

`Cc1ccc(N=Cc2cn(-c3ccccc3)nc2-c2ccccc2)cc1` [Compound I11-4a3b]: the pIC50 is reported as 4.25.

Regarding `Brc1ccc(N=Cc2cn(-c3ccccc3)nc2-c2ccccc2)cc1` [Compound I11-4a5], the pIC50 was 5.52.

Turning to `Cc1ccc(N=Cc2cn(-c3ccccc3)nc2-c2ccccc2)cc1[N+](=O)[O-]` [Compound I11-4a8], the pIC50 was 5.4.

In the case of `Clc1ccccc1CN=Cc1cn(-c2ccccc2)nc1-c1ccccc1` [Compound I11-4a9], the negative logarithm of the IC50 (pIC50) is given as 4.89.

With `FC(F)(F)c1ccccc1CN=Cc1cn(-c2ccccc2)nc1-c1ccccc1` [Compound I11-4a10], the pIC50 was 3.61.

Consider `Cc1ccccc1N=Cc1cn(-c2ccc([N+](=O)[O-])cc2)nc1-c1ccccc1` [Compound I11-4b1], for which the negative-log IC50 (pIC50) is listed as 3.58.

Take `Cc1ccc(N=Cc2cn(-c3ccc([N+](=O)[O-])cc3)nc2-c2ccccc2)cc1` [Compound I11-4b2]: the negative logarithm of the IC50 (pIC50) is 3.58.

For the compound `O=[N+]([O-])c1ccc(-n2cc(C=Nc3ccc(Cl)cc3)c(-c3ccccc3)n2)cc1` [Compound I11-4b3], the pIC50 is 3.61.

In the case of `Cc1ccc(N=Cc2cn(-c3ccc([N+](=O)[O-])cc3)nc2-c2ccccc2)cc1[N+](=O)[O-]` [Compound I11-4b6], the pIC50 is listed as 3.63.

With `COc1ccc(-c2cc(=O)c3c(O)c(OC)c(OC)cc3o2)cc1O` [Eupatorin], the negative-log IC50 (pIC50) is 5.09.

For the compound `O=c1c(O)c(-c2ccc(O)c(O)c2)oc2cc(O)ccc12` [Fisetin], the pIC50 is reported as 5.38.

For `O=c1c(O)c(-c2ccccc2)oc2cc(O)cc(O)c12` [Galangin], the pIC50 is 4.81.

On to `COc1ccc([C@@H]2CC(=O)c3c(O)cc(O)cc3O2)cc1O` [Hesperetin], for which the pIC50 is recorded as 4.4.

Regarding `O=C1C[C@@H](c2ccc(O)cc2)Oc2cc(O)cc(O)c21` [Naringenin], the negative logarithm of the IC50 (pIC50) is reported as 4.18.

On to `O=c1c(O)c(-c2ccc(O)c(O)c2)oc2cc(O)cc(O)c12` [Quercetin], for which the pIC50 is given as 4.76.

Still in this assay, the particulars now being: modeled test set TSMOD2; cited from earlier work.
Consider `Cc1c(-c2ccc(O)cc2)nn(-c2ccc(O)cc2)c1-c1ccc(O)cc1` [Compound I3-I1], for which the pKi was 7.25.

Consider `CCc1c(-c2ccc(O)cc2)nn(-c2ccc(O)cc2)c1-c1ccc(O)cc1` [Compound I3-I2], for which the negative-log Ki (pKi) is given as 9.08.

For the compound `CCCc1c(-c2ccc(O)cc2)nn(-c2ccc(O)cc2)c1-c1ccc(O)cc1` [Compound I3-I3], the pKi is on record as 9.23.

For `CCCCc1c(-c2ccc(O)cc2)nn(-c2ccc(O)cc2)c1-c1ccc(O)cc1` [Compound I3-I4], the pKi is 8.68.

Consider `Cc1c(-c2ccc(O)cc2)nn(-c2ccc(O)cc2)c1-c1ccc(OCCN2CCCCC2)cc1` [Compound I3-I-A1], for which the pKi is recorded as 7.57.

Regarding `CCc1c(-c2ccc(O)cc2)nn(-c2ccc(O)cc2)c1-c1ccc(OCCN2CCCCC2)cc1` [Compound I3-I-A2], the pKi is on record as 8.60.

Regarding `CCCc1c(-c2ccc(O)cc2)nn(-c2ccc(O)cc2)c1-c1ccc(OCCN2CCCCC2)cc1` [Compound I3-I-A3], the pKi was 8.36.

Consider `CCc1c(-c2ccc(O)cc2)nn(-c2ccc(O)cc2)c1-c1ccc(OCCN2CCOCC2)cc1` [Compound I3-I-B], for which the pKi is listed as 8.49.

Regarding `Cc1c(-c2ccc(O)cc2)nn(-c2ccc(O)cc2)c1-c1ccc(OCCN2CCCC2)cc1` [Compound I3-I-C1], the pKi was 7.60.

As to `CCc1c(-c2ccc(O)cc2)nn(-c2ccc(O)cc2)c1-c1ccc(OCCN2CCCC2)cc1` [Compound I3-I-C2], the pKi is 8.72.

For the compound `CCc1c(-c2ccc(O)cc2)nn(-c2ccc(O)cc2)c1-c1ccc(OCCN(C)C)cc1` [Compound I3-I-D], the pKi is 8.48.

On to `CCN(CC)CCOc1ccc(-c2c(C)c(-c3ccc(O)cc3)nn2-c2ccc(O)cc2)cc1` [Compound I3-I-E1], for which the pKi was 8.42.

Turning to `CCc1c(-c2ccc(O)cc2)nn(-c2ccc(O)cc2)c1-c1ccc(OCCN(CC)CC)cc1` [Compound I3-I-E2], the pKi was 8.74.

Take `CCc1c(-c2ccc(O)cc2)nn(-c2ccc(O)cc2)c1-c1ccc(OCCN2CCCC2=O)cc1` [Compound I3-I-F]: the pKi is given as 8.64.

For `CCc1c(-c2ccc(O)cc2)nn(-c2ccc(O)cc2)c1-c1ccc(OCC(O)CO)cc1` (stereo not drawn) [Compound I3-I-G], the negative-log Ki (pKi) is recorded as 8.37.

On to `CC(C)CNc1nc(NCC(C)C)nc(NCC(C)C)n1` [Compound I4-1a], for which the pKi is listed as 3.19.

For the compound `CCCNc1nc(NCCC)nc(NCCC)n1` [Compound I4-1b], the pKi was 3.10.

Regarding `c1ccc(CNc2nc(NCc3ccccc3)nc(NCc3ccccc3)n2)cc1` [Compound I4-1c], the pKi was 3.39.

As to `O=C(C=CC=Cc1ccccc1)CCc1ccccc1` [Compound I6-1], the pKi was 6.19.

As to `CN(C)c1ccc(C=CC=CC(=O)CCc2ccc(O)cc2)cc1` [Compound I6-10], the pKi is reported as 3.63.

With `COc1ccc(CCC(=O)C=CC=Cc2ccc(O)c(OC)c2)cc1` [Compound I6-12], the pKi is on record as 5.86.

In the case of `COc1cc(C=CC=CC(=O)CCc2ccccc2)ccc1O` [Compound I6-14], the pKi is 6.01.

Regarding `COc1ccc(CCC(=O)C=CC=Cc2ccc([N+](=O)[O-])cc2)cc1` [Compound I6-15], the negative logarithm of the Ki (pKi) is on record as 5.63.

As for `O=C(C=CC=Cc1ccc([N+](=O)[O-])cc1)CCc1ccccc1` [Compound I6-16], the pKi is 6.29.

Regarding `COc1ccc(CCC(=O)C=CC=Cc2ccccc2)cc1` [Compound I6-17], the pKi is recorded as 5.83.

For `COc1ccc(CCC(=O)C=CC=Cc2ccc(N(C)C)cc2)cc1` [Compound I6-18], the negative-log Ki (pKi) is on record as 5.66.

For the compound `CN(C)c1ccc(C=CC=CC(=O)CCc2ccccc2)cc1` [Compound I6-19], the pKi is on record as 6.04.

The same assay, now with this note: modeled test set TSMOD3; cited from earlier work.
As to `O=C1CC(c2ccccc2)Oc2ccc(O)cc21` (stereo not drawn) [6-Hydroxyflavanone], the pRBA is 6.05.

With `O=c1cc(-c2ccccc2)oc2ccc(O)cc12` [6-Hydroxyflavone], the pRBA is recorded as 6.40.

On to `O=c1cc(-c2ccc(O)cc2)oc2ccc(O)cc12` [-Dihydroxyflavone], for which the pRBA is on record as 3.82.

On to `O=c1c(O)c(-c2ccc(O)cc2)oc2ccc(O)cc12` [-Trihydroxy flavone], for which the pRBA is reported as 3.35.

In the case of `O=c1c(-c2ccc(O)c(O)c2)coc2cc(O)ccc12` [-Trihydroxy isoflavone], the pRBA was 5.35.

Consider `O=c1cc(-c2ccccc2)oc2cc(O)c(O)c(O)c12` [Baicalein], for which the pRBA is listed as 6.05.

`COc1ccc(-c2coc3cc(O)cc(O)c3c2=O)cc1` [Biochanin A]: the pRBA is 5.37.
